Measured values taken from EP4610262A1, “MACROCYCLIC COMPOUND AS CDK9 INHIBITOR AND USE THEREOF” (Artivila Biopharma, priority 2022, dated 2024).
Read-outs that look alike come from different tables or passages of the source.

Tests used:
Mia-Paca-2 = test: CDK9 cell activity assay, cell growth inhibition (CellTiter-Glo, 72 hours); assay type: cell-based; conditions: Homo sapiens
Method: (§1) In the CDK9 cell activity assay, the cell line MV-4-11 was cultured in IMDM culture medium containing 10% fetal bovine serum (containing 100 U/mL penicillin and 0.1 g/L streptomycin); the cell line HCC1187 was cultured in RPMI-1640 culture medium containing 10% fetal bovine serum (containing 100 U/mL penicillin and 0.1 g/L streptomycin); the cell line Mia Paca-2 was cultured in DMEM containing 10% fetal bovine serum and 2.5% horse serum (containing 100 U/mL penicillin and 0.1 g/L streptomycin); and the cell line A375 was cultured in RPMI-1640 culture medium containing 10% fetal bovine serum (containing 100 U/mL penicillin and 0.1 g/L streptomycin). All cells were cultured in an incubator with saturated humidity at 37°C with 5% CO2.
(§2) When MV-4-11 cells, HCC1187 cells, Mia Paca-2 cells, and A375 cells grew to 80%-90% confluence, they were digested with trypsin, resuspended, counted, and diluted to a certain cell density with complete medium. 100 µL of the cells was plated into each well of a 96-well plate, and the complete medium was used as a background control. The cells were cultured overnight in an incubator with saturated humidity at 37°C with 5% CO2. The compounds were diluted with DMSO to a final concentration of 200×. 3 µL of the stock solution of the above compounds in DMSO was added to 197 µL of complete medium, and 50 µL of the compound diluted in the medium was added to the cells of each well. The cells were cultured in an incubator with saturated humidity at 37°C with 5% CO2 for 72 hours. After 72 hours, the culture plates were placed at room temperature for equilibrium. 40 µL of CellTiter-Glo® reagent was added to each well. The plate was mixed evenly on a shaker for 2 minutes to lyse the cells then incubated at room temperature for 60 minutes to stabilize the chemiluminescent signal, and the chemiluminescence was read using a PE EnVision microplate reader. The inhibition rate on cell growth was calculated as % Inh = (DMSO well - compound treatment well) / (DMSO well - background well) x 100, and fitting was performed using GraphPad Prism 5 to obtain the IC50 values against cell growth.

MV-4-11 = test: as above; assay type: cell-based; conditions: Homo sapiens, MV4-11
Method: as §1, §2

HCC1187 = test: as above; assay type: cell-based; conditions: Homo sapiens
Method: as §1, §2

A375 = test: as above; assay type: cell-based; conditions: Homo sapiens, A-375
Method: as §1, §2

CDK9 = CDK9 (Homo sapiens, UniProt P50750); test: Inhibition of CDK9 kinase activity (caliper mobility shift assay); assay type: biochemical; conditions: for IC50: 10 concentrations from 10 µM, three-fold dilutions; for inhibition at 0.01 µM: compound at 10 nM
Method: (§3) Compounds were tested at a concentration of 10 nM with detection in duplicate wells, or tested at 10 concentrations starting from 10 µM with three-fold serial dilutions, with detection in duplicate wells.
(§4) The inhibitory effect of the compounds on the activity of CDK9 protein kinase was detected by the caliper mobility shift assay method. 250 nL of the compound at 100-fold final concentration was transferred to a target 384-well-plate with a dispenser Echo 550. A kinase solution at 2.5-fold final concentration was prepared using 1× kinase buffer. 10 µL of the kinase solution at 2.5-fold final concentration was added to the compound well and positive control well respectively. 10 µL of 1× kinase buffer was added to the negative control well. The 384-well plate was centrifuged at 1000 rpm for 30 seconds and incubated at room temperature for 10 minutes. A mixed solution of ATP and kinase substrate at 5/3-fold final concentration was prepared with 1× kinase buffer, and to the 384-well plate was added with 15 µL per well of the mixed solution of ATP and substrate at 5/3-fold final concentration to start the reaction. The plate was centrifuged at 1000 rpm for 30 seconds, shaken to mix evenly, and incubated at room temperature for a corresponding time. 30 µL of detection stopping solution was added to terminate the kinase reaction. The 384-well plate was centrifuged at 1000 rpm for 30 seconds and shaken to mix evenly. The conversion rate was read with Caliper EZ Reader. The percent conversion inhibition rate = (% positive control conversion rate mean - % sample conversion rate / (% positive control conversion rate mean - % negative control conversion rate mean). Among them: negative control wells represent the conversion rate readings of kinase buffer background wells; positive control wells represent the conversion rate readings of wells without inhibition by compound. With the log value of concentration as the x-axis and the percentage inhibition rate as the y-axis, a dose-response curve was fitted using the log (inhibitor) vs. response -Variable slope of the analysis software GraphPad Prism 5 to obtain the IC50 value of each compound on enzyme activity. Calculation formula: y=Bottom + (Top-Bottom)/(1+10^((LogIC50-x) × hillslope)), x: logarithm of inhibitor concentration; y: % inhibition rate.

JAK1 = JAK1 (Homo sapiens, UniProt P23458); test: Kinase selectivity, inhibition rate at 10 nM (caliper mobility shift assay); assay type: biochemical; conditions: compound at 10 nM
Method: as §3, §4
(§5) According to the description of the above experiment on kinase activity inhibition, some compounds were tested for their selective inhibition rate against the kinases of CDK7, CDK9, JAK1, JAK2, JAK3, ITK, RET, TYK2, and LRRK2 at 10 nM. The results are shown in Table 3 below: (Inhibition rate range: A>50%; B: 25-49%; C: <25%): […]

LRRK2 = LRRK2 (Homo sapiens, UniProt Q5S007); test: as above; assay type: biochemical; conditions: compound at 10 nM
Method: as §3, §4, §5

JAK2 = JAK2 (Homo sapiens, UniProt O60674); test: as above; assay type: biochemical; conditions: compound at 10 nM
Method: as §3, §4, §5

[1] = selectivity panel Table 3, read-out: Inhibition rate CDK9
[2] = read-out: Inhibition rate on CDK9 kinase activity

JAK1, sequence (P23458 whole entry): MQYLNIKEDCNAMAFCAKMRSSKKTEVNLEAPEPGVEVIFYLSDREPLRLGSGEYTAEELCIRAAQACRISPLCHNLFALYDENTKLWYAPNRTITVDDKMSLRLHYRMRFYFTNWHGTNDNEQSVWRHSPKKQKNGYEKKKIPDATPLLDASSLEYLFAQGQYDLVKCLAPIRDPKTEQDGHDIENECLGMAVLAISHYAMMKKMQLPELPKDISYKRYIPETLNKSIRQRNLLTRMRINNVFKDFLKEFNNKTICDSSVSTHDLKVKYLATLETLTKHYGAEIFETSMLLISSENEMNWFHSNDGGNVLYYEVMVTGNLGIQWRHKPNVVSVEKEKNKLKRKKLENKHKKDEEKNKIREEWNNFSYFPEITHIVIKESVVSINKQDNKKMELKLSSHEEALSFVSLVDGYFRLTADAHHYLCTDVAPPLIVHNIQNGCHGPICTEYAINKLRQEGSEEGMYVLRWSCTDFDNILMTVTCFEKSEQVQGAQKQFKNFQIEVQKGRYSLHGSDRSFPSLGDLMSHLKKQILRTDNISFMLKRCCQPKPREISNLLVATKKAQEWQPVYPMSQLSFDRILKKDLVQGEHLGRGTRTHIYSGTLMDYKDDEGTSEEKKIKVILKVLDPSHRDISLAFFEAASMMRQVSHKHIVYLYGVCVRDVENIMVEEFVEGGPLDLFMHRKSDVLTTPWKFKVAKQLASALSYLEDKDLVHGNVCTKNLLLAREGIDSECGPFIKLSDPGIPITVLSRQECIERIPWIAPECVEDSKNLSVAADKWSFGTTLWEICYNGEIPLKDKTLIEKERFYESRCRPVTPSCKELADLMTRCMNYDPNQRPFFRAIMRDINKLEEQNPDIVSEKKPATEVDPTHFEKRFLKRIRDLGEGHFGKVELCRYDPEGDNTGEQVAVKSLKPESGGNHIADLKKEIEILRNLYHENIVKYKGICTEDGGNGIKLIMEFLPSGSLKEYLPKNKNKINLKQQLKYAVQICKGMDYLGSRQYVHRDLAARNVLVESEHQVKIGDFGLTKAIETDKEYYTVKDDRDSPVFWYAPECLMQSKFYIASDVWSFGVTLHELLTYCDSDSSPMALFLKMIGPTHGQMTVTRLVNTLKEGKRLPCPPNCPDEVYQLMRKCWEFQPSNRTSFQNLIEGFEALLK
JAK2, sequence (O60674 whole entry): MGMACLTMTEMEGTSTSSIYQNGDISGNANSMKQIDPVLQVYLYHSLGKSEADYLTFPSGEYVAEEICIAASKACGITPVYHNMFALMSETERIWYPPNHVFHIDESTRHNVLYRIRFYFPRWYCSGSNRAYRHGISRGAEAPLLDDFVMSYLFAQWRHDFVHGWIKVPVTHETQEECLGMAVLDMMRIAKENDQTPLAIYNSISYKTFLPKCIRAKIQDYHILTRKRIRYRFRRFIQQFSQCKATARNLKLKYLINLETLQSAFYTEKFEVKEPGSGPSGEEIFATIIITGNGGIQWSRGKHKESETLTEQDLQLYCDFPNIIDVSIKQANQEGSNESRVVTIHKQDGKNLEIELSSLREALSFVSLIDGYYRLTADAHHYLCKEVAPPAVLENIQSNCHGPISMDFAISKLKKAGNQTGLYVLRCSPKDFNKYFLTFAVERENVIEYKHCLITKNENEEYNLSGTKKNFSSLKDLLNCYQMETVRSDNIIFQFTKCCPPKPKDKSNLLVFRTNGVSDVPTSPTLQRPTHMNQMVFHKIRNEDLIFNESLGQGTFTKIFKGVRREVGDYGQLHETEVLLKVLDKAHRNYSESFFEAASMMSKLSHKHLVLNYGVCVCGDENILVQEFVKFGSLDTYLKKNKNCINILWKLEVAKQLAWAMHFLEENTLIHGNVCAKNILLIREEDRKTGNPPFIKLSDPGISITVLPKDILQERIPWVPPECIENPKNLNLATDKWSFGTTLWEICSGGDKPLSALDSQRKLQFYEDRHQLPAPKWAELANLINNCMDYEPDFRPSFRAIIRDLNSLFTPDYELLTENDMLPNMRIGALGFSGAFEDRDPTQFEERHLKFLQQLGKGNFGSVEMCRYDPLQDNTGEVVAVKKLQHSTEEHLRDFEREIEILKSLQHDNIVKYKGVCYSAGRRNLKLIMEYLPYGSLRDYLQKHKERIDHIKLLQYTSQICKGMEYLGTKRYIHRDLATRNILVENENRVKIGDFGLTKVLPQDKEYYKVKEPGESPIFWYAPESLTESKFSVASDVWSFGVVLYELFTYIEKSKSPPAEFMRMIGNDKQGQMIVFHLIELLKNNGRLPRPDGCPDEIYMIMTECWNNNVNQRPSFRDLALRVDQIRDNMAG
CDK9, sequence (P50750 whole entry): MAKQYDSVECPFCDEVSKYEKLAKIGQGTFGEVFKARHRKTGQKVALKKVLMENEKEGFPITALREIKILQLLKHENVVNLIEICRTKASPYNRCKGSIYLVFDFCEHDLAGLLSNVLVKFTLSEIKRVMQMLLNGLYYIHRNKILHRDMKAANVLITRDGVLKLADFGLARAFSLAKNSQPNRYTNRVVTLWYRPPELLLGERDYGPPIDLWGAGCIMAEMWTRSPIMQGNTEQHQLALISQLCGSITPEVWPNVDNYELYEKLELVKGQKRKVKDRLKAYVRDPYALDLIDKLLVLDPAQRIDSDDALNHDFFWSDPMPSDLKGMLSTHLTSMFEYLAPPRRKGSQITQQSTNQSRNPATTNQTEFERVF
CDK9, sequence (O60563 whole entry partner): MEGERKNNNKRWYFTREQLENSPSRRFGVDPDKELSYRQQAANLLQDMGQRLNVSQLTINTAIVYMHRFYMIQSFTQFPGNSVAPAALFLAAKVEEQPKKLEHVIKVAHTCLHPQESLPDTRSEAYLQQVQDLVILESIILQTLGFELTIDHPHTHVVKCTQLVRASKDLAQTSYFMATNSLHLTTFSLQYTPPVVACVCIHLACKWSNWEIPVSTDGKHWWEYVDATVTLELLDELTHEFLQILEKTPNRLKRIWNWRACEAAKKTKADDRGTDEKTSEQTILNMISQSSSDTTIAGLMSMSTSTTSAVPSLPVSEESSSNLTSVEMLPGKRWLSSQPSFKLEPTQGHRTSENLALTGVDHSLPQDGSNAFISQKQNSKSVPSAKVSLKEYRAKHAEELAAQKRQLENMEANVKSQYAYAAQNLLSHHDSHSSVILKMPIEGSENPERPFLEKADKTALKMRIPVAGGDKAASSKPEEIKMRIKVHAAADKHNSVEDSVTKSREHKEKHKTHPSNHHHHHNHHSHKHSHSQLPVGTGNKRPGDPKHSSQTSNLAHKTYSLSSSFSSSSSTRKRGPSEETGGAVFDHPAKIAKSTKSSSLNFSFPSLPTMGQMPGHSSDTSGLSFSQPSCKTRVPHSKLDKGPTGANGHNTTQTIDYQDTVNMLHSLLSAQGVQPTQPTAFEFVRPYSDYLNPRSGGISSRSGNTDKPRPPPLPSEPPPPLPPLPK

| SMILES | IC50 (Mia-Paca-2) [nM] | IC50 (MV-4-11) [nM] | IC50 (HCC1187) [nM] | IC50 (A375) [nM] | IC50 (CDK9) [nM] | inhibition at 0.01 µM (CDK9; [1]) [%] | inhibition at 0.01 µM (CDK9; [2]) [%] | inhibition at 0.01 µM (JAK1) [%] | inhibition at 0.01 µM (LRRK2) [%] | inhibition at 0.01 µM (JAK2) [%] |
| --- | --- | --- | --- | --- | --- | --- | --- | --- | --- | --- |
| Cc1ccc2cc1-c1nc(ncc1Cl)Nc1cccc(c1)NC/C=C\CN2 [Compound 12, (Z)-2^5-chloro-1^6-methyl-3,5,10-triaza-2(4,2)-pyrimidina-1,4(1,3)-dibenzocyclodecane-7-ene] | < 250 | < 250 | < 250 | < 250 | < 100 | > 50 | > 50 | < 25 | < 25 | < 25 |
| CN1CCCCCNc2nc(ncc2Cl)Nc2cccc(c2)C1 [Compound 10, 1^5-chloro-5-methyl-2,5,11-triaza-1(2,4)-pyrimidina-3(1,3)-benzene cycloundecane] | 250 to 1000 | < 250 | 1000 to 5000 | 250 to 1000 | < 100 |  | 25 to 49 |  |  |  |
| N#Cc1cnc2nc1NCCCCCNCc1cccc(c1)N2 [Compound 15, 2,5,11-triaza-1(2,4)-pyrimidina-3(1,3)-benzenacycloundecaphan-1^5-carbonitrile] |  |  |  |  | < 100 | 25 to 49 | 25 to 49 | < 25 | < 25 | < 25 |
| Cc1ccc2cc1-c1nc(ncc1Cl)Nc1cccc(c1)CNCCCN2 [Compound 35, 2^5-chloro-1^6-methyl-3,6,10-triaza-2(4,2)-pyrimidina-1,4(1,3)-dibenenacyclodecaphane] |  | < 250 | < 250 |  | < 100 |  |  |  |  |  |
| COc1ccc2cc1-c1nc(ncc1F)Nc1cccc(c1)NC/C=C\CN2 [Compound 39, (Z)-2^5-fluoro-1^6-methoxy-3,5,10-triaza-2(4,2)-pyrimidina-1,4(1,3)-dibenzenacyclooctyna-7-ene] |  | 250 to 1000 | 1000 to 5000 |  | < 100 |  |  |  |  |  |
| Clc1cnc2nc1OCCCCCNCc1cccc(c1)N2 [Compound 18, 1^5-chloro-11-oxa-2,5-diaza-1(2,4)-pyrimidina-3(1,3)-benzenacyclodecaphane] |  | < 250 |  |  | < 100 | > 50 | > 50 | < 25 |  | < 25 |
| Fc1cnc2nc1-c1cccc(c1)NCCCCNc1cccc(c1)N2 [Compound 38, 2^5-fluoro-3,5,10-triaza-2(4,2)-pyrimidina-1,4(1,3)-dibenzenacyclodecaphane] |  | 250 to 1000 | 250 to 1000 |  | < 100 |  |  |  |  |  |
| Cc1ccc2cc1-c1nc(ncc1Cl)Nc1cnn(c1)CCCCCN2 [Compound 28, (E)-2^5-chloro-1^6-methyl-4^1hydro-3,10-diaza-2(4,2)-diaza-2(4,2)-pyrimidina-4(4,1)-pyrazola-1(1, 3)-benzenacyclodecaphane] |  | < 250 |  |  | < 100 |  |  |  |  |  |
| Cc1ccc2cc1-c1nc(ncc1Cl)Nc1cnn(c1)CCNCCN2 [Compound 46, (E)-2^5-chloro-1^6-methyl-4^1H-3,7,10-triaza-2(4,2)-pyrimidina-4(4,1)-pyrazola-1(1,3)-benzenacycl odecaphane] |  | 250 to 1000 | 250 to 1000 |  | < 100 |  |  |  |  |  |
| CN1CCCCCNCc2cccc(c2)Nc2ncc(Cl)c1n2 [Compound 25, 1^5-chloro-11-methyl-2,5,11-triaza-1(2,4)-pyrimidina-3(1,3)-benzocycloundecaphane] |  |  |  |  | < 100 |  |  |  |  |  |
| Clc1cnc2nc1N1CCC(C1)NCCCCNCc1cccc(c1)N2 (stereo not drawn) [Compound 44, 2^5-chloro-3,6,11-triaza-2(4,2)-pyrimidina-1(1,3)-pyrrolidina-4(1,3)-benzenacycloalkaphane] |  |  |  |  | 500 to 1000 |  |  |  |  |  |
| Cc1ccc2cc1-c1nc(ncc1Cl)Nc1cnn(c1)CCOCCN2 [Compound 41, (E)-2^5-chloro-1^6-methyl-4^1H-7-oxa-3,10-diaza-2(4,2)-pyrimidina-4(4,1)-pyrazola-1(1,3)-benzena cyclodecaphane] |  | < 250 | < 250 |  | < 100 |  |  |  |  |  |
| Clc1cnc2nc1-c1cnn(c1)CC/C=C\CNc1cccc(c1)N2 [Compound 31, (1^4Z,7Z)-2^5-chloro-1^1H-3,5-diaza-2(4,2)-pyrimidina-1(4,1)-pyrazola-4(1,3)-benzenacyclodecaph an-7-ene] |  | < 250 | 250 to 1000 |  | < 100 |  |  |  |  |  |
| Clc1cnc2nc1N1CCC(C1)OCCCNCc1cccc(c1)N2 (stereo not drawn) [Compound 45, 2^5-chloro-10-oxa-3,6-diaza-2(4,2)-pyrimidina-1(1,3)-pyrrolidina-4(1,3)-benzenacyclodecaphane] |  |  |  |  | 100 to 500 |  |  |  |  |  |
